Source: article PMC9525273 (Nature Communications, 2022)
“And” between values parts separate entries of the source, which are not always exact repeats. Equal entries are not always repeated. Where two headings read alike, the source gives them in different places.

Columns and labels:
Type in all cases: cell-based, Plasmodium falciparum
Dd2 parasites = experiment: P. falciparum proliferation assay (72 h, fluorescent DNA-intercalating dye); details: for Parasite proliferation (% of no-cipargamin control), MEAN: Dd2, MEAN of 16 experiments
Procedure: (§1) For experiments with all other parasites, the effects of compounds of interest on parasite proliferation was measured in 96-well plates containing serial dilutions of the compounds in culture medium, with a fluorescent DNA-intercalating dye used to detect surviving parasites. The assays were initiated with erythrocytes infected with predominantly ring-stage parasites, and the starting parasitaemia and haematocrit were both 1%.

[1] = tested on: Dd2-Polδ-PfATP4^G358S parasites; experiment: as above
Procedure: as §1

NF54^WT parasites = experiment: microbe, parasite or virus in culture
How it was run: (§2)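 Predominantly ring-stage cultures at 0.3% parasitaemia, 1% haematocrit, in medium with 10% O+ human serum; compound exposure 72 h, DMSO <0.5% (v/v). Live parasites counted by flow cytometry with SYBR Green I and 200 nM MitoTracker Deep Red. IC50/IC90 from linear interpolation of dose-response data.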

NF54^CTL parasites = experiment: P. falciparum proliferation assay (72 h, flow cytometry, SYBR Green I/MitoTracker); details: for IC50: NF54, NF54CTL
How it was run: as §2

NF54^G358S-2 parasites = experiment: as above
How it was run: as §2

NF54^G358S-1 parasites = experiment: as above
How it was run: as §2

SMILES: C[C@H]1Cc2c([nH]c3cc(Cl)c(F)cc23)[C@@]2(N1)C(=O)Nc1ccc(Cl)cc12 [Cipargamin]
- Parasite proliferation (% of no-cipargamin control), MEAN (Dd2 parasites; [Cipargamin] 3.125 nM): 0.3 % of no-cipargamin control
- Parasite proliferation (% of no-cipargamin control), MEAN (Dd2 parasites; [Cipargamin] 6.25 nM): 0.5 % of no-cipargamin control
- Parasite proliferation (% of no-cipargamin control), MEAN (Dd2 parasites; [Cipargamin] 25 nM): 0.0247 % of no-cipargamin control
- IC50 (Dd2 parasites; Plasmodium falciparum, DD2, read-out: IC50 values, MEAN, Dd2, MEAN, source data of Fig. 2): 0.68 nM
- IC50 ([1]; Dd2-Polδ-PfATP4G358S, single experiments, source data of Fig. 2 (nM in Supplementary Table 1), read-out: IC50 values): 1140 nM and 1420 nM and 1580 nM and 1640 nM and 1670 nM and 1510 nM
- IC50 ([1]; Plasmodium falciparum, DD2, Dd2-Polδ-PfATP4G358S, MEAN, source data of Fig. 2, read-out: IC50 values, MEAN): 1420 nM
- IC50 ([1]; Plasmodium falciparum, DD2, Dd2-Polδ-PfATP4G358S, single experiments, source data of Fig. 2 (nM in Supplementary Table 1), read-out: IC50 values): 980 nM
- IC90 (NF54^WT parasites; NF54WT parasites, individual experiments, read-out: IC90 values): 4.6 nM and 3.5 nM
- FC (IC50) (NF54^WT parasites; NF54WT, reference line): 1.0 fold
- FC (IC90) (NF54^WT parasites; NF54WT, reference line): 1.0 fold
- IC50 (NF54^WT parasites; NF54WT, single experiments, source data of Fig. 2 (nM in Supplementary Table 5), read-out: IC50 values): 2.8 nM and 2.5 nM and 2.6 nM
- IC90 (NF54^WT parasites; Plasmodium falciparum, NF54, NF54WT parasites, individual experiments, read-out: IC90 values): 3.6 nM
- IC90 (NF54^WT parasites; Plasmodium falciparum, NF54, NF54WT parasites, mean of the experiments, read-out: IC90 values, MEAN): 3.8 nM
- IC50 (NF54^WT parasites; Plasmodium falciparum, NF54, NF54WT, MEAN, source data of Fig. 2, read-out: IC50 values, MEAN): 2.64 nM
- IC50 (NF54^WT parasites; Plasmodium falciparum, NF54, NF54WT, single experiments, source data of Fig. 2 (nM in Supplementary Table 5), read-out: IC50 values): 2.7 nM
- FC (IC50) (NF54^CTL parasites; NF54CTL compared to NF54WT): 1.0 fold
- FC (IC90) (NF54^CTL parasites; NF54CTL compared to NF54WT): 1.0 fold
- IC90 (NF54^CTL parasites; NF54CTL parasites, individual experiments, read-out: IC90 values): 3.6 nM and 3.4 nM
- IC90 (NF54^CTL parasites; Plasmodium falciparum, NF54, NF54CTL parasites, individual experiments, read-out: IC90 values): 4.1 nM
- IC90 (NF54^CTL parasites; Plasmodium falciparum, NF54, NF54CTL parasites, mean of the experiments, read-out: IC90 values, MEAN): 3.7 nM
- IC50 (NF54^CTL parasites; Plasmodium falciparum, 10% human serum, read-out: IC50 ± SEM): 2.6 ± 0.1 nM
- IC50 (NF54^CTL parasites; Plasmodium falciparum, MEAN, source data of Fig. 2, read-out: IC50 values, MEAN): 2.55 nM
- IC50 (NF54^G358S-2 parasites; NF54G358S-2, single experiments, source data of Fig. 2 (nM in Supplementary Table 5), read-out: IC50 values): 1750 nM and 2010 nM and 2430 nM
- FC (IC50) (NF54^G358S-2 parasites; NF54G358S-2 compared to NF54WT): 751.9 fold
- FC (IC90) (NF54^G358S-2 parasites; NF54G358S-2 compared to NF54WT): 903.4 fold
- IC90 (NF54^G358S-2 parasites; NF54G358S-2 parasites, individual experiments, read-out: IC90 values): 3.35 µM and 3.42 µM and 3.53 µM
- IC90 (NF54^G358S-2 parasites; Plasmodium falciparum, NF54, NF54G358S-2, 10% human serum, read-out: IC90 ± SEM): 3.43 ± 0.0367 µM
- IC50 (NF54^G358S-2 parasites; Plasmodium falciparum, NF54, NF54G358S-2, MEAN, source data of Fig. 2, read-out: IC50 values, MEAN): 1980 nM
- IC50 (NF54^G358S-2 parasites; Plasmodium falciparum, NF54, NF54G358S-2, single experiments, source data of Fig. 2 (nM in Supplementary Table 5), read-out: IC50 values): 1750 nM
- IC90 (NF54^G358S-2 parasites; Plasmodium falciparum, NF54, NF54G358S-2 parasites, individual experiments, read-out: IC90 values): 3.43 µM
- IC90 (NF54^G358S-2 parasites; Plasmodium falciparum, NF54, NF54G358S-2 parasites, mean of the experiments, read-out: IC90 values, MEAN): 3.43 µM
- IC50 (NF54^G358S-1 parasites; NF54G358S-1, single experiments, source data of Fig. 2 (nM in Supplementary Table 5), read-out: IC50 values): 2030 nM and 1970 nM and 2280 nM
- FC (IC50) (NF54^G358S-1 parasites; NF54G358S-1 compared to NF54WT): 768.6 fold
- FC (IC90) (NF54^G358S-1 parasites; NF54G358S-1 compared to NF54WT): 910.8 fold
- IC90 (NF54^G358S-1 parasites; NF54G358S-1 parasites, individual experiments, read-out: IC90 values): 3.46 µM (2×) and 3.39 µM
- IC50 (NF54^G358S-1 parasites; Plasmodium falciparum, NF54, NF54G358S-1, 10% human serum, read-out: IC50 ± SEM): 2030 ± 93.9 nM
- IC90 (NF54^G358S-1 parasites; Plasmodium falciparum, NF54, NF54G358S-1, 10% human serum, read-out: IC90 ± SEM): 3.461 ± 0.0307 µM
- IC50 (NF54^G358S-1 parasites; Plasmodium falciparum, NF54, NF54G358S-1, MEAN, source data of Fig. 2, read-out: IC50 values, MEAN): 2030 nM
- IC50 (NF54^G358S-1 parasites; Plasmodium falciparum, NF54, NF54G358S-1, single experiments, source data of Fig. 2 (nM in Supplementary Table 5), read-out: IC50 values): 1840 nM
- IC90 (NF54^G358S-1 parasites; Plasmodium falciparum, NF54, NF54G358S-1 parasites, individual experiments, read-out: IC90 values): 3.54 µM
- IC90 (NF54^G358S-1 parasites; Plasmodium falciparum, NF54, NF54G358S-1 parasites, mean of the experiments, read-out: IC90 values, MEAN): 3.46 µM
